In patent US10703757B2, “Compounds and methods for CDK8 modulation and indications therefor” (Plexxikon Inc., priority 2016, dated 2020):

What was measured:
[1] = system: CDK8 (phosphorylation of STAT1 at serine 727 in A549 cells); assay: Cell based Phospho-STAT1 assay (IFNγ-stimulated A549 cells, AlphaLISA); details: Homo sapiens, A549, A549 cells, phospho-STAT1 after IFNγ stimulation
Method in brief: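 A549 cells given serial compound dilutions for 1 h at 37 °C, then stimulated with IFNγ at 10 ng/mL final for 30 min. Lysate STAT1 Ser727 phosphorylation measured by AlphaLISA; % inhibition vs stimulated/unstimulated DMSO controls, IC50 by nonlinear regression.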

[2] = system: CDK8 (TCF/LEF luciferase reporter in HCT116 cells); assay: Cell based TCF/LEF reporter assay (HCT116+TCF/LEF luciferase); details: Homo sapiens, HCT-116, 24 h
Method in brief: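 Luciferase readout was corrected for viability (CellTiter-Fluor) and scaled between DMSO high and 10 uM CCT251545 low controls, giving IC50 by nonlinear regression. Compounds, serially diluted, were incubated 24 h at 37 °C on HCT116 clones stably expressing a TCF/LEF-driven luciferase reporter.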

Row | IC50 [1] [nM] | IC50 [2] [nM] | Structure (SMILES)
1 | 0.1 to 100 | 0.1 to 100 | N#CC1CCC(c2cccn3ncc(-c4ccc(N5CCOCC5)nc4)c23)CC1 (stereo not shown) [Compound P-0141, 4-(3-(6-morpholinopyridin-3-yl)pyrazolo[1,5-a]pyridin-4-yl)cyclohexane-1-carbonitrile]
2 | 0.1 to 100 | 0.1 to 100 | N#CC1CCC(c2cccn3ncc(-c4ccc(OCCCN5CCCCC5)cc4)c23)CC1 (stereo not shown) [Compound P-0142, 4-(3-(4-(3-(piperidin-1-yl)propoxy)phenyl)pyrazolo[1,5-a]pyridin-4-yl)cyclohexane-1-carbonitrile]
3 | 0.1 to 100 | 0.1 to 100 | N#CC1CCC(c2cccn3ncc(-c4ccc(OCC(O)CN5CCCCC5)cc4)c23)CC1 (stereo not shown) [Compound P-0143, 4-(3-(4-(2-hydroxy-3-(piperidin-1-yl)propoxy)phenyl)pyrazolo[1,5-a]pyridin-4-yl)cyclohexane-1-carbonitrile]
4 | 0.1 to 100 | 0.1 to 100 | N#CC1CCC(c2cccn3ncc(-c4ccc(OCC5CCCCO5)cc4)c23)CC1 (stereo not shown) [Compound P-0144, 4-(3-(4-((tetrahydro-2H-pyran-2-yl)methoxy)phenyl)pyrazolo[1,5-a]pyridin-4-yl)cyclohexane-1-carbonitrile]
5 | 0.1 to 100 | 0.1 to 100 | O=C1NCCC12CCN(c1cccn3ncc(-c4ccc(OCCOC5CCOCC5)cc4)c13)CC2 [Compound P-0145, 8-(3-(4-(2-((tetrahydro-2H-pyran-4-yl)oxy)ethoxy)phenyl)pyrazolo[1,5-a]pyridin-4-yl)-2,8-diazaspiro[4.5]decan-1-one]
6 | 0.1 to 100 | 0.1 to 100 | N#CC1CC=C(c2nccn3ncc(-c4ccc(OCCOC5CCOCC5)cc4)c23)CC1 (stereo not shown) [Compound P-0146, 4-(3-(4-(2-((tetrahydro-2H-pyran-4-yl)oxy)ethoxy)phenyl)pyrazolo[1,5-a]pyrazin-4-yl) cyclohex-3-ene-1-carbonitrile]
7 | 0.1 to 100 | 0.1 to 100 | COc1ccc2cc(-c3cnn4ccnc(C5=CCC(C#N)CC5)c34)ccc2n1 (stereo not shown) [Compound P-0147, 4-(3-(2-methoxyquinolin-6-yl)pyrazolo[1,5-a]pyrazin-4-yl)cyclohex-3-ene-1-carbonitrile]
8 | 100 to 1000 | 0.1 to 100 | Cc1nc2cc(-c3cnn4ccnc(C5=CCC(C#N)CC5)c34)ccc2s1 (stereo not shown) [Compound P-0148, 4-(3-(2-methylbenzo[d]thiazol-5-yl)pyrazolo[1,5-a]pyrazin-4-yl)cyclohex-3-ene-1-carbonitrile]
9 | 0.1 to 100 | 0.1 to 100 | Cc1nc2ccc(-c3cnn4ccnc(C5=CCC(C#N)CC5)c34)cc2s1 (stereo not shown) [Compound P-0149, 4-(3-(2-methylbenzo[d]thiazol-6-yl)pyrazolo[1,5-a]pyrazin-4-yl)cyclohex-3-ene-1-carbonitrile]
10 | 0.1 to 100 | 0.1 to 100 | CS(=O)(=O)Nc1ccc2cc(-c3cnn4cccc(C5=CCC(C#N)CC5)c34)ccc2n1 (stereo not shown) [Compound P-0150, N-(6-(4-(4-cyanocyclohex-1-en-1-yl)pyrazolo[1,5-a]pyridin-3-yl)quinolin-2-yl)methanesulfonamide]
11 | 0.1 to 100 | 0.1 to 100 | CS(=O)(=O)Nc1ccc2cc(-c3cnn4ccnc(C5=CCC(C#N)CC5)c34)ccc2n1 (stereo not shown) [Compound P-0151, N-(6-(4-(4-cyanocyclohex-1-ene-1-yl)pyrazolo[1,5-a]pyrazin-3-yl)quinolin-2-yl)methanesulfonamide]
12 | 100 to 1000 | 0.1 to 100 | Cc1ccc(-c2cnn3ccnc(C4=CCC(C(N)=O)CC4)c23)cn1 (stereo not shown) [Compound P-0152, 4-(3-(6-methylpyridin-3-yl)pyrazolo[1,5-a]pyrazin-4-yl)cyclohex-3-ene-1-carboxamide]
13 | 0.1 to 100 | 0.1 to 100 | Cc1ccc2cc(-c3cnn4ccnc(C5=CCC(C(N)=O)CC5)c34)ccc2n1 (stereo not shown) [Compound P-0153, 4-(3-(2-methylquinolin-6-yl)pyrazolo[1,5-a]pyrazin-4-yl)cyclohex-3-ene-1-carboxamide]
14 | 0.1 to 100 | 0.1 to 100 | COc1ccc2cc(-c3cnn4ccnc(C5=CCC(C(N)=O)CC5)c34)ccc2n1 (stereo not shown) [Compound P-0154, 4-(3-(2-methoxyquinolin-6-yl)pyrazolo[1,5-a]pyrazin-4-yl)cyclohex-3-ene-1-carboxamide]
15 | 100 to 1000 | 100 to 1000 | COc1ccc(-c2cnn3ccnc(C4=CCC(C(N)=O)CC4)c23)cn1 (stereo not shown) [Compound P-0155, 4-(3-(6-methoxypyridin-3-yl)pyrazolo[1,5-a]pyrazin-4-yl)cyclohex-3-ene-1-carboxamide]
16 | 100 to 1000 | 100 to 1000 | Cn1cc(-c2ccc(-c3cnn4cccc(N5CC6CCC(C5)C6C#N)c34)cc2)cn1 (stereo not shown) [Compound P-0159, 3-(3-(4-(1-methyl-1H-pyrazol-4-yl)phenyl)pyrazolo[1,5-a]pyridin-4-yl)-3-azabicyclo[3.2.1]octane-8-carbonitrile]

Row | IC50 [1] [nM] | IC50 [2] [nM] | Structure (SMILES)
17 | 1000 to 10000 | 1000 to 10000 | N#CC1C2CCC1CN(c1cccn3ncc(-c4ccc(Cl)cc4)c13)C2 (stereo not shown) [Compound P-0161, 3-(3-(4-chlorophenyl)pyrazolo[1,5-a]pyridin-4-yl)-3-azabicyclo[3.2.1]octane-8-carbonitrile]
18 | 0.1 to 100 | 0.1 to 100 | CC(C)(O)Cn1cc(-c2ccc(-c3cnn4ccnc(C5=CCC(C#N)CC5)c34)cc2)cn1 (stereo not shown) [Compound P-0162, 4-(3-(4-(1-(2-hydroxy-2-methylpropyl)-1H-pyrazol-4-yl)phenyl)pyrazolo[1,5-a]pyrazin-4-yl)cyclohex-3-ene-1-carbonitrile]
19 | 0.1 to 100 | 0.1 to 100 | CC(C)(O)Cn1cc(-c2ccc(-c3cnn4ccnc(C5=CCC(C#N)CC5)c34)cc2F)cn1 (stereo not shown) [Compound P-0163, 4-(3-(3-fluoro-4-(1-(2-hydroxy-2-methylpropyl)-1H-pyrazol-4-yl)phenyl)pyrazolo[1,5-a]pyrazin-4-yl)cyclohex-3-ene-1-carbonitrile]
20 | 0.1 to 100 | 0.1 to 100 | Cc1nc2ccc(-c3cnc4[nH]ccc4c3C3=CCC(C#N)CC3)cc2s1 (stereo not shown) [Compound P-0164, 4-(5-(2-methylbenzo[d]thiazol-6-yl)-1H-pyrrolo[2,3-b]pyridin-4-yl)cyclohex-3-ene-1-carbonitrile]
21 | 100 to 1000 | 1000 to 10000 | COc1ccc2ccc(-c3cnn4ccnc(C5=CCC(C#N)CC5)c34)cc2n1 (stereo not shown) [Compound P-0165, 4-(3-(2-methoxyquinolin-7-yl)pyrazolo[1,5-a]pyrazin-4-yl)cyclohex-3-ene-1-carbonitrile]
22 | 0.1 to 100 | 0.1 to 100 | CS(=O)(=O)Nc1ccc2cc(-c3cnn4ccnc(C5=CCC(C#N)CC5)c34)ccc2c1 (stereo not shown) [Compound P-0166, N-(6-(4-(4-cyanocyclohex-1-en-1-yl)pyrazolo[1,5-a]pyrazin-3-yl)naphthalen-2-yl)methanesulfonamide]
23 | 0.1 to 100 | 0.1 to 100 | COc1ccc2cc(-c3cnn4cccc(N5CCC6(CCNC6=O)CC5)c34)ccc2n1 [Compound P-0167, 8-(3-(2-methoxyquinolin-6-yl)pyrazolo[1,5-a]pyridin-4-yl)-2,8-diazaspiro[4.5]decan-1-one]
24 | 0.1 to 100 | 0.1 to 100 | Cc1ccc2cc(-c3cnn4cccc(N5CCC6(CCNC6=O)CC5)c34)ccc2n1 [Compound P-0168, 8-(3-(2-methylquinolin-6-yl)pyrazolo[1,5-a]pyridin-4-yl)-2,8-diazaspiro[4.5]decan-1-one]
25 | 0.1 to 100 | 0.1 to 100 | Cn1ncc2cc(-c3cnn4cccc(N5CCC6(CCNC6=O)CC5)c34)ccc21 [Compound P-0169, 8-(3-(1-methyl-1H-indazol-5-yl)pyrazolo[1,5-a]pyridin-4-yl)-2,8-diazaspiro[4.5]decan-1-one]
26 | 0.1 to 100 | 0.1 to 100 | Cn1cc(-c2ccc(-c3cnn4cccc(N5CCC6(CCNC6=O)CC5)c34)cc2)cn1 [Compound P-0170, 8-(3-(4-(1-methyl-1H-pyrazol-4-yl)phenyl)pyrazolo[1,5-a]pyridin-4-yl)-2,8-diazaspiro[4.5]decan-1-one]
27 | 0.1 to 100 | 0.1 to 100 | N#CC1CCN(c2c(-c3ccc(OCCOC4CCOCC4)cc3)cnc3[nH]ccc23)CC1 [Compound P-0171]
28 | 0.1 to 100 | 0.1 to 100 | N#CC1CC=C(c2c(-c3ccc(OCCOC4CCOCC4)cc3)cnc3[nH]ccc23)CC1 (stereo not shown) [Compound P-0172, 4-(5-(4-(2-((tetrahydro-2H-pyran-4-yl)oxy)ethoxy)phenyl)-1H-pyrrolo[2,3-b]pyridin-4-yl)cyclohex-3-ene-1-carbonitrile]
29 | 0.1 to 100 | 0.1 to 100 | CCn1cc(-c2ccc(-c3cnc4[nH]ccc4c3N3CCC(C#N)CC3)cc2)cn1 [Compound P-0173, 1-(5-(4-(1-ethyl-1H-pyrazol-4-yl)phenyl)-1H-pyrrolo[2,3-b]pyridin-4-yl)piperidine-4-carbonitrile]
30 | 0.1 to 100 | 0.1 to 100 | N#CC1CCN(c2c(-c3ccc(-c4cnn(CC(F)(F)F)c4)cc3)cnc3[nH]ccc23)CC1 [Compound P-0174, 1-(5-(4-(1-(2,2,2-trifluoroethyl)-1H-pyrazol-4-yl)phenyl)-1H-pyrrolo[2,3-b]pyridin-4-yl)piperidine-4-carbonitrile]
31 | 0.1 to 100 | 0.1 to 100 | N#CC1CCN(c2c(-c3ccc(-c4cnn(CC5CC5)c4)cc3)cnc3[nH]ccc23)CC1 [Compound P-0177, 1-(5-(4-(1-(cyclopropylmethyl)-1H-pyrazol-4-yl)phenyl)-1H-pyrrolo[2,3-b]pyridin-4-yl)piperidine-4-carbonitrile]
32 | 0.1 to 100 | 0.1 to 100 | N#CC1CC=C(c2cccn3ncc(-c4ccc(OCC(O)CN5CCOCC5)cc4)c23)CC1 (stereo not shown) [Compound P-0178, 4-(3-(4-(2-hydroxy-3-morpholinopropoxy)phenyl)pyrazolo[1,5-a]pyridin-4-yl)cyclohex-3-ene-1-carbonitrile]
